Data taken from article PMC12152147, “DDB1 engagement defines the selectivity of S656 analogs for cyclin K degradation over CDK inhibition” (EMBO Reports, 2025).
Values joined by “and” are separate entries in the source; they are usually repeats but may differ in a detail not shown here. Identical values can stand only once. Like-named read-outs stand apart in the source and are kept apart here.

Key:
CDK12/Cyclin K = biological target: T1, CDK12/Cyclin K (Homo sapiens, UniProt Q9NYV4); assay: CDK12/CyclinK in vitro kinase assay (BPS kit, Kinase Glo MAX); type: biochemical
T1 construct: purchased BPS Bioscience 78298
Method: (§1) Kinase activity was assessed using the kinase assay kits from BPS Bioscience for CDK1, CDK9 and CDK12 with Kinase Glo MAX in duplicates. Compounds were tested at a single concentration of 1 μM for CDK1 and CDK9 activity, and in a dilution ranging from 0.64 nM to 50 μM for CDK12 activity. Chemiluminescence was read using the Neo Synergy BioTek plate reader.

[1] = tested on: OCI-AML5 cells expressing shRNA targeting CUL4A or CUL4B; assay: Dose response in OCI-AML5 expressing shRNAs targeting CUL4A, CUL4B or control; type: cell-based, H. sapiens; conditions: ratio of IC50 in shCUL4A vs shCTRL OCI-AML5 cells
cyclin KeGFP = assay: Cyclin KeGFP reporter system (eGFP/mCherry MFI by flow cytometry);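 as to % degradation cyclin K-eGFP: 10 μM compound for 3 h relative to DMSO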; type: cell-based, H. sapiens
In short: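 OCI-AML5 clone G7 carrying lentiviral cyclin KeGFP/mCherry reporter. eGFP and mCherry geometric MFI measured by flow cytometry; eGFP/mCherry ratio normalized to DMSO-treated cells.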

[2] = tested on: OCI-AML5 cells expressing shRNAs targeting CDK1, 2, 4, 7, 9, cyclin K; assay: Dose response in OCI-AML5 expressing shRNAs targeting CDK1, 2, 4, 7, 9, cyclin K or control; type: cell-based, H. sapiens; conditions: for IC50: OCI-AML5, 4 days
OCI-AML5 cells = assay: Dose-response proliferative assay in OCI-AML5 (4 days, CellTiterGlo); type: cell-based, H. sapiens; conditions: OCI-AML5 cells; read-out: IC50 in AML5
In short: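 OCI-AML5 cells in αMEM, 10% heat-inactivated FBS plus 10 ng/mL GM-CSF, 300 cells/well, exposed to 8-point 1:4 serial dilutions (10 μM down to 0.5 nM). Viability read after 4 days in culture at 37 °C, 5% CO2.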

CDK1 = biological target: T2, CDK1 (Homo sapiens, UniProt P06493); assay: CDK1 in vitro kinase activity, single concentration 1 μM; type: biochemical; conditions: single concentration 1 μM
T2 construct: purchased BPS Bioscience 79597
Method: as §1

CDK9/CyclinT = biological target: T3, CDK9/CyclinT (Homo sapiens, UniProt P50750); assay: CDK9/CyclinT in vitro kinase activity, single concentration 1 μM; type: biochemical; conditions: single concentration 1 μM
T3 construct: purchased BPS Bioscience 79628
Method: as §1

primary AML specimens = assay: Dose-response assays in primary AML specimens (6 days, CellTiterGlo); type: cell-based, human; conditions: 6 days, read-out: IC50
In short: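 Primary AML cells in IMDM/15% BIT with SCF, FLT3L, IL3, G-CSF, SR1 and UM729 were exposed to 8-point 1:4 dilutions (10 μM to 0.5 nM) for 6 days. Viability came from CellTiterGlo luminescence, with % inhibition versus DMSO (0.1%) fitted by nonlinear regression.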

T1 sequence (Q9NYV4 whole entry): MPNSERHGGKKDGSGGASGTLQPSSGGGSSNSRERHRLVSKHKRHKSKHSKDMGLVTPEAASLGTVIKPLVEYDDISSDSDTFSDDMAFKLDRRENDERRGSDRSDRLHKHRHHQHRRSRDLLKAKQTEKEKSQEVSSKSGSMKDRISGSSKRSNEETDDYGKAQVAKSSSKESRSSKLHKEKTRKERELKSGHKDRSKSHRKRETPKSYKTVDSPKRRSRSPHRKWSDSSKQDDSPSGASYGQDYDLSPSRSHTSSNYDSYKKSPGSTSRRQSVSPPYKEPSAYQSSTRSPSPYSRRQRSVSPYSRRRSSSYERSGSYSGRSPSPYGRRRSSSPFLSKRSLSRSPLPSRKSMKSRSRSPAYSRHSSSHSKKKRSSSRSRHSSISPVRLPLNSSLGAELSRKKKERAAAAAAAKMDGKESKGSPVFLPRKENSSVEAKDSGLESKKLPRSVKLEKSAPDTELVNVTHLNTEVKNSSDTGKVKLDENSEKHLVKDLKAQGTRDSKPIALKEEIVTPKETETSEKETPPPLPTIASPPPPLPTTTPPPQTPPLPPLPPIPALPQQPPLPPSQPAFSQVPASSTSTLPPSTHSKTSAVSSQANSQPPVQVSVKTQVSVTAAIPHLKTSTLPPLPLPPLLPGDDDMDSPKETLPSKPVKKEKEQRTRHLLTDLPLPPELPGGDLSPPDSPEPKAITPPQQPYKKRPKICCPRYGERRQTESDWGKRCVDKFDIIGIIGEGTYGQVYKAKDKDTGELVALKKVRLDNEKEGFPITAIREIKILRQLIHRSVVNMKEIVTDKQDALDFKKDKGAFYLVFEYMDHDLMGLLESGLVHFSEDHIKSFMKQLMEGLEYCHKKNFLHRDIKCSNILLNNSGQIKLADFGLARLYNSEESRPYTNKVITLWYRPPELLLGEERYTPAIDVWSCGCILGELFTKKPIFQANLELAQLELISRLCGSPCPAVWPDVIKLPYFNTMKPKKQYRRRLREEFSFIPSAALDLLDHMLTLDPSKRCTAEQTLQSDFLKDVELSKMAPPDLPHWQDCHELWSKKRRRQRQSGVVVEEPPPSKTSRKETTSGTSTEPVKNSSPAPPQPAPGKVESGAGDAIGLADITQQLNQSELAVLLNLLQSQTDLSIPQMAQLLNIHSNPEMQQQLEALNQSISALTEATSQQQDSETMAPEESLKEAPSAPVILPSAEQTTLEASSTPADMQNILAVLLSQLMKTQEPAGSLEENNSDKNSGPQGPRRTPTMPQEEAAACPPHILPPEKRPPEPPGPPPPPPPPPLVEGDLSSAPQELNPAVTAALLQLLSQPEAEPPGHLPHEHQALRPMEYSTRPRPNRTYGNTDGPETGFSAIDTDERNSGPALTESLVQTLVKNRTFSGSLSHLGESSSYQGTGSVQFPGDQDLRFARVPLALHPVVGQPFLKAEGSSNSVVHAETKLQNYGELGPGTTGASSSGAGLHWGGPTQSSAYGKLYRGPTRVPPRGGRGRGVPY
T1 sequence (O75909 whole entry partner): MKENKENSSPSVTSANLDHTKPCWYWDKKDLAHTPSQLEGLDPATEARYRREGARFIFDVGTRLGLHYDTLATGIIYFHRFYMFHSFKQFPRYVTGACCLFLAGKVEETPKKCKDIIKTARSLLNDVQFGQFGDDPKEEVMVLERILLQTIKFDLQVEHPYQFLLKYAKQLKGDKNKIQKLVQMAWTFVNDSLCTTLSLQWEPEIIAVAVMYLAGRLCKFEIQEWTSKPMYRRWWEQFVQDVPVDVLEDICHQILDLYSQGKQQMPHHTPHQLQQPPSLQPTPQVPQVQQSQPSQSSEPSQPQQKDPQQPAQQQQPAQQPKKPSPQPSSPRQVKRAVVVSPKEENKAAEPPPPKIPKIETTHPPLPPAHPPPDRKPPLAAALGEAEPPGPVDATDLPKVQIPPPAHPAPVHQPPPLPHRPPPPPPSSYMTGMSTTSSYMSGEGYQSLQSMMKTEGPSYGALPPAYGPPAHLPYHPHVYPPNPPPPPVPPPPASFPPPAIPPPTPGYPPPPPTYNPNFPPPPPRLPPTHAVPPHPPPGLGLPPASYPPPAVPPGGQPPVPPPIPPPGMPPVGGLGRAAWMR
T3 sequence (P50750 whole entry): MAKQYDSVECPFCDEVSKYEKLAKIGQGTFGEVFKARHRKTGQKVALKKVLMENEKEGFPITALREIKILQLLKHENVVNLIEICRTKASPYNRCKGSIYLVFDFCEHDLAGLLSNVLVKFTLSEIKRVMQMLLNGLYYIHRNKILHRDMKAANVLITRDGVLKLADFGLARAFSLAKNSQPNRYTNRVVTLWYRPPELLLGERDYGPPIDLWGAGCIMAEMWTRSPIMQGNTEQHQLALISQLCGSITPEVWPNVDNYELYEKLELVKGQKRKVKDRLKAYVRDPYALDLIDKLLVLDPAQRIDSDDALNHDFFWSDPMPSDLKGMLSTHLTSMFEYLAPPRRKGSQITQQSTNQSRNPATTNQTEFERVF
T3 sequence (O60563 whole entry partner): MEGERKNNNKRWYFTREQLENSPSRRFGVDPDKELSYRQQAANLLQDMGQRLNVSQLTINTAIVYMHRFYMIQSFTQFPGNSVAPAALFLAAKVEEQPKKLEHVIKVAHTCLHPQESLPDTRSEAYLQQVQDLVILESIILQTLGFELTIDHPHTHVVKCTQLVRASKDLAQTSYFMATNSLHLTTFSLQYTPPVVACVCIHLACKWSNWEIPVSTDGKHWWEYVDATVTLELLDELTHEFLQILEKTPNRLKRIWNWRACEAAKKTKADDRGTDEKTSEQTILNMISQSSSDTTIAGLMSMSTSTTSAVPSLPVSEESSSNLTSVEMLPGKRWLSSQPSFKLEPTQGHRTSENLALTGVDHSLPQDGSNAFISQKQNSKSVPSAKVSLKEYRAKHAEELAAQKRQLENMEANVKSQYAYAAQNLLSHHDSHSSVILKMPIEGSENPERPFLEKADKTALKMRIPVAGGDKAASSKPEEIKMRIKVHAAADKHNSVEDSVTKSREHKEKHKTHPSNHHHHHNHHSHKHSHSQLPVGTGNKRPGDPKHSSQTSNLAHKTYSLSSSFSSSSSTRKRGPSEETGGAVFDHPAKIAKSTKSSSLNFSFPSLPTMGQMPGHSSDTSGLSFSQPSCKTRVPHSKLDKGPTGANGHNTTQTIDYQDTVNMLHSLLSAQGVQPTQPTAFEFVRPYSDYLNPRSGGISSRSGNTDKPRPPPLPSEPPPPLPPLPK
T2 sequence (P06493 whole entry): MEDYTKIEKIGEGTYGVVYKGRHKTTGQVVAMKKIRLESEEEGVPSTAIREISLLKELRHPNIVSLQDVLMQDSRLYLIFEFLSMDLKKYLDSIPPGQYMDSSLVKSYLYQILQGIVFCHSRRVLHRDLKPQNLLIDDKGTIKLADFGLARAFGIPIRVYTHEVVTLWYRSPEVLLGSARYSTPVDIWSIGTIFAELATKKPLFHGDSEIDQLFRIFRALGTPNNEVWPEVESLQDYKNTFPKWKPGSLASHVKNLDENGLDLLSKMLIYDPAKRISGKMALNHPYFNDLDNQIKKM
T2 sequence (P14635 whole entry partner): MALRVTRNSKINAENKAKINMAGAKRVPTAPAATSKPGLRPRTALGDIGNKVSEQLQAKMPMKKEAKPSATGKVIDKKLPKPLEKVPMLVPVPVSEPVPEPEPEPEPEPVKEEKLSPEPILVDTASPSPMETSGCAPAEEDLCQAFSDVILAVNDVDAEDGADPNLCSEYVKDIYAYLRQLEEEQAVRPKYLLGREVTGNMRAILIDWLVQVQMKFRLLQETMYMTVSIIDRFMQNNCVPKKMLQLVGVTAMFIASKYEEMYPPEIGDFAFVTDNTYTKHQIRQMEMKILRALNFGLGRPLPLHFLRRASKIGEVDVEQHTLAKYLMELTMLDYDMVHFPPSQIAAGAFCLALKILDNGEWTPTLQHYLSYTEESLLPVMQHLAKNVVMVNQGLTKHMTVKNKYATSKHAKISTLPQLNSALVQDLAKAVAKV

Question: With `Cc1cccc(Nc2nc(CC(=O)Nc3ncc(C)s3)cs2)n1` [HQ461] as the molecule, how does the “in vitro inhibition of CDK12/Cyclin K activity” value (CDK12/Cyclin K; Log10 (uM) 1.69897, in % (unit assumed)) read?
Answer: 45.8 and 46.66 and 37.27

Question: And the IC50 (CDK12/Cyclin K; read-out: IC50, in vitro inhibition of CDK12/Cyclin K activity)?
Answer: > 50000 nM

Question: What about the “Ratio shCUL4A/shCTRL” value [1] of the same molecule?
Answer: 4.25

Question: What about the “MFI of cyclin KeGFP over mCherry” value (cyclin KeGFP; OCI-AML5 G7 clone, 3 h, 10 μM, normalized to DMSO (=100)) of the same molecule?
Answer: 20.9 and 23.4 and 22.9 and 21.1 and 21.0

Question: What about the “% degradation cyclin K-eGFP” value (cyclin KeGFP; cyclin K-eGFP reporter) of the same molecule?
Answer: 79%

Question: What about the IC50 ([2]; read-out: IC50, sh CDK1) of the same molecule?
Answer: 1500 nM and 2300 nM and 2010 nM

Question: What about the IC50 ([2]; read-out: IC50, sh CDK2) of the same molecule?
Answer: 1310 nM and 1750 nM and 2460 nM

Question: What about the IC50 ([2]; read-out: IC50, sh CDK4) of the same molecule?
Answer: 1240 nM and 1300 nM and 1980 nM

Question: And the IC50 ([2]; read-out: IC50, sh CDK7)?
Answer: 1090 nM and 1800 nM and 1930 nM

Question: What about the IC50 ([2]; read-out: IC50, sh CDK9) of the same molecule?
Answer: 1110 nM and 1360 nM and 1320 nM

Question: And the IC50 ([2]; read-out: IC50, sh Cyclin K)?
Answer: 429 nM and 562 nM and 546 nM

Question: What about the IC50 ([2]; read-out: IC50, sh ctrl) of the same molecule?
Answer: 1070 nM and 1220 nM and 1040 nM

Question: What about the Class ([2]; class from shRNA IC50 profile and cyclin K-eGFP degradation) of the same molecule?
Answer: 1

Question: What about the IC50 (OCI-AML5 cells) of the same molecule?
Answer: 1070 nM

Question: What about the “% CDK1 inhibition” value (CDK1) of the same molecule?
Answer: 0%

Question: And the “% CDK9 inhibition” value (CDK9/CyclinT)?
Answer: 0%

Question: What about the IC50 (primary AML specimens; primary AML specimen 03H109) of the same molecule?
Answer: 883 nM

Question: What about the IC50 (primary AML specimens; primary AML specimen 04H055) of the same molecule?
Answer: 2010 nM

Question: What about the IC50 (primary AML specimens; primary AML specimen 04H096) of the same molecule?
Answer: 1220 nM

Question: What about the IC50 (primary AML specimens; primary AML specimen 04H138) of the same molecule?
Answer: 2260 nM

Question: And the IC50 (primary AML specimens; primary AML specimen 05H113)?
Answer: 974 nM

Question: And the IC50 (primary AML specimens; primary AML specimen 05H149)?
Answer: 1170 nM

Question: What about the IC50 (primary AML specimens; primary AML specimen 05H193) of the same molecule?
Answer: 1260 nM

Question: And the IC50 (primary AML specimens; primary AML specimen 06H088)?
Answer: 1320 nM

Question: What about the IC50 (primary AML specimens; primary AML specimen 06H117) of the same molecule?
Answer: 1200 nM

Question: And the IC50 (primary AML specimens; primary AML specimen 06H151)?
Answer: 677 nM

Question: What about the IC50 (primary AML specimens; primary AML specimen 07H003) of the same molecule?
Answer: 2350 nM

Question: What about the IC50 (primary AML specimens; primary AML specimen 07H131) of the same molecule?
Answer: 2900 nM

Question: What about the IC50 (primary AML specimens; primary AML specimen 07H144) of the same molecule?
Answer: 983 nM

Question: And the IC50 (primary AML specimens; primary AML specimen 07H155)?
Answer: 2460 nM

Question: What about the IC50 (primary AML specimens; primary AML specimen 08H018) of the same molecule?
Answer: 2240 nM

Question: What about the IC50 (primary AML specimens; primary AML specimen 08H021) of the same molecule?
Answer: 1030 nM

Question: What about the IC50 (primary AML specimens; primary AML specimen 08H056) of the same molecule?
Answer: 2300 nM

Question: And the IC50 (primary AML specimens; primary AML specimen 08H063)?
Answer: 2420 nM

Question: And the IC50 (primary AML specimens; primary AML specimen 08H085)?
Answer: 1050 nM

Question: And the IC50 (primary AML specimens; primary AML specimen 08H108)?
Answer: 2180 nM

Question: What about the IC50 (primary AML specimens; primary AML specimen 08H118) of the same molecule?
Answer: 873 nM

Question: And the IC50 (primary AML specimens; primary AML specimen 09H016)?
Answer: 869 nM

Question: And the IC50 (primary AML specimens; primary AML specimen 09H070)?
Answer: 2340 nM

Question: What about the IC50 (primary AML specimens; primary AML specimen 10H014) of the same molecule?
Answer: 529 nM

Question: What about the IC50 (primary AML specimens; primary AML specimen 10H046) of the same molecule?
Answer: 1050 nM

Question: And the IC50 (primary AML specimens; primary AML specimen 10H107)?
Answer: 1400 nM

Question: And the IC50 (primary AML specimens; primary AML specimen 10H127)?
Answer: 1920 nM

Question: And the IC50 (primary AML specimens; primary AML specimen 10H161)?
Answer: 1220 nM

Question: What about the IC50 (primary AML specimens; primary AML specimen 10H174) of the same molecule?
Answer: 950 nM

Question: What about the IC50 (primary AML specimens; primary AML specimen 11H008) of the same molecule?
Answer: 1540 nM

Question: And the IC50 (primary AML specimens; primary AML specimen 11H019)?
Answer: 1320 nM

Question: And the IC50 (primary AML specimens; primary AML specimen 11H170)?
Answer: 3060 nM

Question: And the IC50 (primary AML specimens; primary AML specimen 11H217)?
Answer: 1690 nM

Question: What about the IC50 (primary AML specimens; primary AML specimen 11H232) of the same molecule?
Answer: 1460 nM

Question: And the IC50 (primary AML specimens; primary AML specimen 12H033)?
Answer: 2450 nM

Question: What about the IC50 (primary AML specimens; primary AML specimen 12H055) of the same molecule?
Answer: 1470 nM

Question: What about the IC50 (primary AML specimens; primary AML specimen 12H148) of the same molecule?
Answer: 1880 nM

Question: What about the IC50 (primary AML specimens; primary AML specimen 13H053) of the same molecule?
Answer: 2280 nM

Question: And the IC50 (primary AML specimens; primary AML specimen 15H045)?
Answer: 931 nM

Question: And the IC50 (primary AML specimens; primary AML specimen 17H065)?
Answer: 1420 nM
